Values quoted from earlier work as cited in patent publication US20090162416A1, “Polymer implants for timed release of drugs with particular emphasis on ovulation or spermiation of fish” (priority 2007, published 2009).
Non-standard residues stand in square brackets, D forms with d. pGlu = O=C1CC[C@@H](C(=O)O)N1

System: seasonable ripe gravid female catfish
Settings: 0.45 mg/lb of body weight

## -Glp-His-Trp-Ser-Tyr-Gly-Leu-Arg-Pro-ethylamide- ([pGlu]HWSYGLRP-NHEt) [LHRH, nine amino acid synthetic polypeptide used to promote ovulation in catfish]
  time to ovulation after single injection: ≤ 12 h
